Test results from US6906170B1 (Yeda Research and Development Co. Ltd., priority 1998, dated 2005).
No end group written: not given here.

Tested on: T cells
Assay: Staining of actin cytoskeleton in FN-adherent activated T cells
Assay type: cell-based, human
Details: TRITC-phalloidin staining
Experimental: FIGS. 8A-8E show inhibition by pep2 of the spreading and redistribution of the actin cytoskeleton in IL-2- and PMA-activated FN-adherent T cells. […] After incubation, the intracellular actin filaments of the fixed FN-attached T cells were stained. Original magnification, =1000.
Staining of actin cytoskeleton. T cells were incubated (18 h, 37° C., 7.5% CO2, humidified atmosphere) in culture medium. […] After 1 h at 37° C., the adherent cells were fixed (3 min) with paraformaldehyde (3%) and Triton X-100 (0.5%), washed, and fixed (20 min) again with paraformaldehyde (3%). The fixed adherent cells were washed, treated with TRITC-phalloidin, and washed again. Photographs (×1000 magnification) were then taken.
Inhibition of the reorganization of the actin cytoskeleton in FN-attached activated T cells by the […](SEQ ID NO:1) peptide. The adhesion of immune cells to ECM is dependent on the sequestering of the cytoplasmic domains of integrins in focal adhesion sites, together with actin-containing microfilament bundles (Sanchez-Mateos et al., 1996). Therefore, we examined the effect of […](SEQ ID NO:1) on the morphologies of adherent T cells. […] After incubation and fixation, the actin cytoskeleton of attached T cells was stained with TRITC-conjugated phalloidin. […]

Substance	redistribution of the actin cytoskeleton in IL-2- and PMA-treated FN-adherent T cells
Ile-Val-Leu [pep1]	inhibition of the redistribution of the actin cytoskeleton
Glu-Phe-Leu-Asn-Arg-Trp-Ile-Thr (EFLNRWIT; not fully specified (C-terminus); printed as Glu-Phe-Leu-Asn-Arg-Trp-Ile-Thr) [pep2]	inhibited the redistribution of the actin skeleton
